How the values were obtained:
[1] = system: ID8-Vegf Defb29 cells stably expressing firefly luciferase in C57BL6 mice; test: ID8-Luc syngeneic ovarian tumor model; type: in vivo, mouse; details: female C57BL6 mice, 40 mg/Kg every 3 days, i.p.
Experimental: Whereas vehicle treatment (n=7) increased tumor burden and ascites formation.
Briefly, female C57BL6 mice were injected (i.p.) with ID8-Vegf Defb29 cells stably expressing firefly luciferase (0.5×10^6 cells) in PBS (100 uL). After 72 hrs, mice were imaged for their basal luminescence levels using an IVIS200 imager. Mice with visible luminescence were randomized into two groups and treated with Vehicle (25% b-hydroxy propylcyclodextrin in water, 200 uL, every 3 days, i.p.) and RA475 (40 mg/Kg, every 3 days, i.p.). Mice were imaged every week to measure bioluminescence expressed by tumor after administration of luciferin (100 uL, 7.8 mg/mL).

[2] = Microsomal stability, mouse liver microsomes; type: in vitro ADME
Experimental: Human and mouse liver microsomes and NADPH regenerating system solutions were purchased from Corning Life Sciences (Tewsbury, MA). Human and mouse K2EDTA was purchased from BioIVT (Westbury, NY). Metabolic studies in liver microsomes (0.125 mg/mL) were conducted in 1× phosphate buffered saline (pH 7.4), NADPH-generating system, and 10 μM of RA475 in a final volume of 250 μl. An incubation mixture with and without NADPH-generating system as well as a neat solution without microsomes and NADPH-generating system were prepared. RA475 was added at the same concentration level into human and mouse EDTA plasma. All reactions were initiated with the addition of RA475. Incubations were performed in glass tubes maintained at 37° C. in a shaker bath. At 0, 30, and 60 minutes, 10 μL aliquots were sampled from the reaction mixture and 0.5 mL of acetonitrile containing internal standard (Up284) was added to each samples. Samples were vortex-mixed and underwent centrifugation for 5 min at 1430×g. A 10 μL aliquot of the supernatant was injected onto the LC-MS instrument for qualitative analysis using a temperature-controlled autosampling device operating at 5° C. Chromatographic analysis was performed using a Waters Acquity™ Ultra Performance LC. […] The mobile phase used for the chromatographic separation was composed of water (mobile phase A) and acetonitrile (mobile phase B) containing 0.1% (v/v) formic acid with a flow rate of 0.3 mL/min. The initial mobile phase composition was 80% mobile phase A and 20% mobile phase B. From 0.5 to 1 min, mobile phase B was increased linearly from 20% to 100%. From 1 to 3 min, mobile phase B was maintained at 100%. From 3.0 to 3.1 min, the gradient decreased to 20% mobile phase B and the conditions were maintained until 4.1 min to re-equilibrate the column for the next injection. The column effluent was monitored using an AB Sciex 5500 triple quadrupole mass spectrometer. The instrument was equipped with an electrospray interface, operated in a positive mode and controlled by the Analyst v1.6 software. For the stability study, the mass spectrometer was programmed to monitor the following MRM transition 408.2→366.1 for RA475 and 366.2→155.8 for UP284 (internal standard). Results were assessed qualitatively comparing the average area ratio of RA475 at 0 hr to area ratio at 30 and 60 minutes for both mouse and human liver microsomes. RA475 was not analyzed for metabolites due to the concentration of RA475 not decreasing.

[3] = system: 4T1; test: MTT cytotoxicity assay, 4T1; type: cell-based; details: 4T1, breast (TNBC), 72 hr, read-out: IC50, cell killing
Experimental: (§1) All cell lines were obtained from the American Type Culture Collection (ATCC) and cultured in the specified medium supplemented with 10% fetal bovine serum, 100 IU/mL penicillin, and 100 μg/mL streptomycin at 37° C. in a humidified 5% CO2/95% air incubator. To assess drug cytotoxicity cells were seeded at 2,500 cells/well (10,000 cells/well for MM lines and primary cells) in 100 μL medium in 96-well plate. […]
(§2) It was examined whether the RPN13 inhibitor, RA475, was cytotoxic for cancer cell lines using the MTT assay.

[4] = system: HCT116; test: MTT cytotoxicity assay, HCT116; type: cell-based; details: HCT116, colon, 72 hr, read-out: IC50, cell killing
Experimental: as §1, §2

[5] = system: 4UbFL reporter in leg muscle of CD-1 mice; test: On-target activity in vivo using 4UbFL; design: species or system mouse; details: 40 mg/Kg single i.p. dose
Experimental: A patch was shaved of hair on one leg of CD-1 mice, and 10 μg 4UbFL plasmid in 20 μL of PBS was injected into the quadriceps femoralis muscle followed immediately by injection of the 2 Needle Array to 5 mm depth encompassing the injection site and square wave electroporation (ElectroSquarePorator 833, BTX-2 Needle array 5 mm gap, Harvard apparatus) delivered as eight pulses at 106V for 20 ms with 200 ms intervals. One day post electroporation, mice were anesthetized with isoflurane, injected i.p. with luciferin (0.3 mg in 100 μL water) and optical imaging was performed to determine basal level luciferase expression. Images were acquired for 10 min with a Xenogen IVIS 200 (Caliper, Hopkinton, MA). Equally sized areas were analyzed using Living Image 2.20 software. Mice were imaged weekly during treatment. Mice were randomized into three groups (n=5) and treated i.p. once with Vehicle (25% (w/v) β-Hydroxypropylcyclodextrin in water, Sigma Aldrich), RA475 (40 mg/Kg) and Up284 (40 mg/Kg) and mice were imaged again at 4 hr, 24 hr, 48 hr, 72 hr and 96 hr later.
To assess on-target activity in vivo, 4UbFL plasmid was injected into the muscle of one leg of CD-1 mice followed by electroporation. Luciferin was injected i.p. 24 hr later and the mice were tagged and imaged using an IVIS200 to visualize their basal bioluminescence. The mice were then immediately randomized to 3 groups and treated with vehicle alone (25% β-hydroxypropylcyclodextrin-water solution), RA475 (40 mg/Kg) and Up284 (40 mg/Kg) administered as a single i.p. dose. To examine the on-target activity, the mice were imaged again at 4 hr, 24 hr, 48 hr, 72 hr and 96 hr later.

[6] = system: OVCAR3; test: MTT cytotoxicity assay, OVCAR3; type: cell-based; details: OVCAR3, ovarian, 72 hr, read-out: IC50, cell killing
Experimental: as §1, §2

[7] = system: cancer cells; test: MTT cytotoxicity assay, cancer cell lines overall; type: cell-based; details: all solid cancer-derived cell lines tested (Table 1)
Experimental: All cell lines were obtained from the American Type Culture Collection (ATCC) and cultured in the specified medium supplemented with 10% fetal bovine serum, 100 IU/mL penicillin, and 100 μg/mL streptomycin at 37° C. in a humidified 5% CO2/95% air incubator. To assess drug cytotoxicity cells were seeded at 2,500 cells/well (10,000 cells/well for MM lines and primary cells) in 100 μL medium in 96-well plate. The cells were treated with compounds for 48 h, and cells were incubated according to the manufacturer's protocol with the Thiazolyl Blue Tetrazolium Bromide (Sigma, M2128) and A570 measured using a Benchmark Plus microplate spectrophotometer (BIO-RAD).
as §2

SMILES | body weight [1] | effect on tumor (bioluminescence) [1] | survival [1] | % Drug Remaining ([2]; NADPH Neg, 0 minutes) [%] | % Drug Remaining ([2]; NADPH Neg, 30 minutes) [%] | % Drug Remaining ([2]; NADPH Neg, 60 minutes) [%] | % Drug Remaining ([2]; NADPH Pos, 0 minutes) [%] | % Drug Remaining ([2]; NADPH Pos, 30 minutes) [%] | % Drug Remaining ([2]; NADPH Pos, 60 minutes) [%] | IC50 [3] [nM] | IC50 [4] [nM] | increase in bioluminescence at the site of electroporation over baseline ([5]; 4 hr after administration) [fold] | increase in bioluminescence at the site of electroporation over baseline ([5]; 24 hr after administration) [fold] | IC50 [6] [nM] | IC50 across cancer cell lines [7]
Cl.Cl.N#Cc1ccc(/C=C2/C(=O)/C(=C/c3ccc(C#N)cc3)C23CCN(C(=N)N)CC3)cc1 [RA475] | no weight loss | regressed tumor | enhanced survival | 100 | 90 | 108 | 100 | 93 | 98 | 261 | 430 | 24 | 6 | 190 | Sub micromolar
N#Cc1ccc(/C=C2/C(=O)/C(=C/c3ccc(C#N)cc3)C23CCNCC3)cc1 [Up284, reference compound] |  |  |  | 100 | 60 | 51 | 100 | 45 | 38 |  |  |  | ~3 |  | 
